Experimental data taken from PMC3447897 (Diabetes, 2012).
Residues, ends and D or L forms follow the SMILES beside them.

Tests used:
[1] = molecular target: HLA-B7.2 (Homo sapiens, UniProt P01889); assay: HLA-B7 peptide binding affinity assay
[2] = tested on: epitope-specific TMr+CD8+ T cells; settings: median over 7 HLA-A2+ new-onset T1D patients; cited from earlier work

Sequence of HLA-B7.2 (P01889 25-299 limits assumed): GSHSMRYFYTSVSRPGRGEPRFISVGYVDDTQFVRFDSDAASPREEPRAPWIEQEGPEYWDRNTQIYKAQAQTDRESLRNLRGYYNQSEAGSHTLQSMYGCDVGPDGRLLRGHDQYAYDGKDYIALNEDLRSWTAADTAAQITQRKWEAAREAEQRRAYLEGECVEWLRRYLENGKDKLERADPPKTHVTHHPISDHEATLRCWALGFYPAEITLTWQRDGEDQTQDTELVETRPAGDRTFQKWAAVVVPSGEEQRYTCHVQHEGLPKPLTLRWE
Sequence of HLA-B7.2 (P61769 21-119 partner): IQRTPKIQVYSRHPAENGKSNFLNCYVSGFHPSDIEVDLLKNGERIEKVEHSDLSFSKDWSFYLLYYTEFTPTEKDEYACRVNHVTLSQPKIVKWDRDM

| Molecule | Kd [1] [nM] | percent of epitope-specific T cells expressing IFNG mRNA, HLA-A2–restricted [2] [%] | percent of epitope-specific T cells expressing TGFB mRNA, HLA-A2–restricted [2] [%] |
| --- | --- | --- | --- |
| CC[C@H](C)[C@H](N)C(=O)N1CCC[C@H]1C(=O)N[C@@H](CO)C(=O)N[C@@H](CC(=O)O)C(=O)N[C@@H](CC(C)C)C(=O)N[C@@H](CCC(=O)O)C(=O)N[C@@H](CCCNC(=N)N)C(=O)N[C@@H](CCCNC(=N)N)C(=O)N[C@H](C(=O)N[C@@H](CC(C)C)C(=O)O)[C@@H](C)CC [GAD311–320] (H-IPSDLERRIL-OH) | 100 | – | – |
| CC[C@H](C)[C@H](NC(=O)[C@@H](NC(=O)[C@@H]1CCCN1C(=O)[C@H](C)N)C(C)C)C(=O)N[C@@H](CCCCN)C(=O)N[C@@H](C)C(=O)N[C@@H](CCCNC(=N)N)C(=O)N[C@@H](CCSC)C(=O)N[C@@H](CCSC)C(=O)O [GAD530–538] (H-APVIKARMM-OH) | 61 | – | – |
| CC(C)C[C@H](NC(=O)[C@H](C)NC(=O)[C@H](CC(C)C)NC(=O)[C@H](CC(C)C)NC(=O)[C@H](C)NC(=O)[C@H](CC(C)C)NC(=O)[C@H](CC(C)C)NC(=O)[C@@H]1CCCN1C(=O)[C@@H](N)CC(C)C)C(=O)O [PPI8–16] (H-LPLLALLAL-OH) | 1090 | – | – |
| PPI6–14: HLA-A2–restricted preproinsulin epitope used for comparison (RLLPLLALL; UniProt P01308 6-14, looked up, fragment) | – | 60 | 13 |
